Measurements as given in patent publication US20220187275A1, “SYSTEMS AND METHODS FOR DIRECTED FORMATION OF SIZE-CONTROLLED MULTI-CELLULAR STRUCTURES AND MEASUREMENT OF FORCES GENERATED BY THE SAME” (Forcyte Biotechnologies, Inc., priority 2019, published 2022).

Test system: primary human airway smooth muscle cells
Conditions: 384-well plate, 24 hours serum starvation, histamine final concentration 100 micromolar, imaged at 1 minute intervals
Method: To achieve the result depicted in FIG. 9, approximately 2000-2500 primary human airway smooth muscle cells were seeded into each of several wells on a microplate comprising 384 wells each with at least 60 MCS-supporting micropatterns deposed on their surface, in Ham's F12 medium supplemented with 10% serum and incubated for 5 days. The MCS-supporting micropatterns comprised a fluorophore-conjugated material comprising human fibrinogen conjugated to Alexa Fluor® 546 dye.
On day 5, MCS comprising the primary airway smooth muscle cells were observed within the wells. At this point, the serum-supplemented medium was replaced with serum-free medium to induce the contractile phenotype in the MCS. […] This step was taken to maximize contractile responsiveness to agonist in the next step.
After 24 hours of serum starvation, the microplate containing the MCS was imaged using a fluorescent microscope prior to any chemical addition in the fluorescent channel that corresponds to the fluorophore used in the MCS-supporting micropattern.

## NCCc1c[nH]cn1 [histamine]
  contraction of the MCS (size of MCS-supporting micropatterns relative to baseline contracted state) after addition of agonist: contraction
